Data published in US20090280060A1, “PHOTOCHROMIC PROBES” (priority 2004, published 2009).

Experiments:
G-actin [1] = molecular target: T1, G-actin (Oryctolagus cuniculus, UniProt P68135); experiment: Fluorescence excitation and emission spectra of G-actin conjugates; type: physicochemical, Rabbit; design: Rabbit muscle G-actin was purified according to Marriott; from tissue; host or cells: rabbit muscle; conditions: for MC emission maximum of G-actin conjugate: excitation wavelength of 370 nm
Excerpt: FIG. 3. (A), Technical fluorescence excitation spectrum of the G-actin conjugate of compound 12, showing the S0-S2 (centered at 370 nm) and S0-S1 (centered at 558 nm) excitation bands of MC. The emission was monitored at an emission wavelength of 650 nm. (B), Normalized, technical emission spectra of G-actin conjugates of compounds: a), 3 (624 nm); b), 12 (622 nm); c), 6 (628 nm); d), 13 (630 nm). The emission from the MC state in each conjugate was generated using an excitation wavelength of […].
(§1) MATERIALS AND METHODS. Instrumentation. ^1H NMR spectra were measured on a Brucker Ac 300 MHz; mass spectra were carried out on a Micromass AutoSpec for EI, a Micromass LCT for ESI, or a Bruker REFLEX II for MALDI. Absorption spectra were recorded on a Hewlett-Packard 82152 diode array spectrophotometer or a Shimadzu 1601 PC instrument. Fluorescence spectroscopy was performed on an SLM-AB2 instrument (Thermoelectron, Madison, Wis.) or an ISS PC1 (Champaign, Ill.). Light-directed switching of the probes described in this work was achieved by irradiating the sample (120-1000 μL) with the 365 nm or 546 nm lines of a 100 W Hg-arc lamp (Zeiss).
Further information on MC-solvent interactions can be derived from studying the fluorescence properties of MC. From a practical standpoint, fluorescence from ^1MC* is best studied by exciting the spirobenzopyran with mid-ultraviolet light (S0-S2 transition)—this condition maintains a uniform population of MC excited state molecules (see Jablonski diagram, FIG. 4A). Contrary to the ground state studies, the inventors find that the average energy of the MC fluorescence is insensitive to the solvent (water, 2-propanol, 1,2-propanediol and acetonitrile; data not shown) and to the location of MC probe on G-actin (FIG. 3B).

BSA = BSA (Bos taurus, UniProt P02769); experiment: Absorption spectra of MC probes attached to a cysteine residue on BSA; type: physicochemical; conditions: MC state, probe attached to a cysteine residue on BSA
BSA, sequence (P02769 25-607): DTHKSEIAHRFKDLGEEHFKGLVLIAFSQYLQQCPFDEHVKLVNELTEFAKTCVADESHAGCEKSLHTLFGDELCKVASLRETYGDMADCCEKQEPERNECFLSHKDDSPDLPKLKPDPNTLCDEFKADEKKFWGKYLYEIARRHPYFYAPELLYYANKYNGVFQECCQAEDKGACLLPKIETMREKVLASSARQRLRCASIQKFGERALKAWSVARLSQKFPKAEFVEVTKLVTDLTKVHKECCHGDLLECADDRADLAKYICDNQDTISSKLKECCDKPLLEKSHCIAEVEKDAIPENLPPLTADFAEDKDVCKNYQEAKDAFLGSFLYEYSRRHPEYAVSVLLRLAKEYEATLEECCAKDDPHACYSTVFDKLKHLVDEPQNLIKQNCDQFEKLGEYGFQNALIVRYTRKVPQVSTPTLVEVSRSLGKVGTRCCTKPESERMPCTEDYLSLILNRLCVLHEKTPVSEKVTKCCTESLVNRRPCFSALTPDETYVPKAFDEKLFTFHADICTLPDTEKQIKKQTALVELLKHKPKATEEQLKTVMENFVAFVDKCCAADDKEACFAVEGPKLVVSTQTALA
Protocol: BSA: BSA conjugates of the spirobenzopyran reagents were prepared in a similar fashion to that described for G-actin yielding similar labeling ratios (FIG. 5C). The absorption spectrum of the five MC probes attached to a cysteine residue on BSA are centered at 544.5 nm (18,365 cm^−1) for compound 6,534 nm ([…]) for compound 12, 520 nm (19,231 cm^−1) for compounds 9; 503.5 nm (19,861 cm^−1) for compound 13. The difference in the energy of the absorption bands for these conjugates of 1496 cm^−1 is a little less than that found between the same probes on G-actin but again is significant in terms of the free energy of complex formation between BSA and its ligands. These confirm the conclusion that the protein matrix is made up of a complex dipolar landscape.

[2] = test system: fertilized xenopus oocytes; experiment: Cell division in microinjected fertilized xenopus oocytes; type: in vivo; conditions: microinjection at the 4 cell stage
Protocol: Light directed activation of constitutively active caged cofilin. Caged cofilin (constitutively active S3A) was prepared independently of Ghosh et al (2004) using our standard NVOC-Cl approach (Marriott, 1994) that is described above for caged CapG. […] Oocytes were microinjected with caged fluorescein dextran (Molecular Probes) and concentrated caged cofilin (5 mg/ml) at the 4 cell stage—we estimate that the intracellular concentration of cofilin is the two injected cells is between 30˜50 μM. Irradiation of all four cells in the embryo with 365 nm light for 2 seconds generated fluorescein and green fluorescence, and by implication cofilin, from their caged precursors in the two injected cells. […] We conclude from these studies that the increased concentration of cofilin generated by uncaging inhibits actin filament dynamics and cytokinesis (Bamburg, 1999).

G-actin [3] = molecular target: T1, G-actin; experiment: Absorption spectra of MC state of probes attached to cysteine-374 on G-actin; type: physicochemical, Rabbit; design: Rabbit muscle G-actin was purified according to Marriott; from tissue; host or cells: rabbit muscle; conditions: probe attached to cysteine-374 of G-actin
Protocol: as §1
Rabbit muscle G-actin was purified according to Marriott^14 in G-buffer (2 mM Tris, 0.2 mM CaCl2, and 0.2 mM ATP at pH 8.0). The concentration of G-actin was determined by absorption spectroscopy using an extinction coefficient of 3400 M^−1 cm^−1 at 290 nm^14. 1 ml of a 20 μM solution of G-actin was treated with 20 μL of a 10 mM DMF stock solution of each thiol reactive, spirobenzopyran probe. The reaction mixture was left in the dark for 2 hours at room temperature. The protein was centrifuged for 10 min at 2000 g at 4° and applied to a Bio-Rad PD-10 column equilibrated in G-buffer containing 1 mM DTT. […]
G-Actin: The reaction between a ten-fold molar excess of thiol reactive, spirobenzopyran reagents and 20 μM G-actin at 20° is complete within 2 hours. The concentration of spirobenzopyran in each conjugate is determined from the value of the absorption maximum of the SP form of G-actin conjugates using an extinction coefficient of 35,000 M^−1cm^−1 at 350 nm^15 (FIG. 5A) The absorption spectra of the MC and SP states are not affected by the labeling ratio (spirobenzopyran/G-actin, which varies from 0.6 to 0.8 within the different conjugates. Cysteine-374 is located at an important site on G-actin and has been implicated in several important interactions of actin that include protomer-contacts within F-actin^23, the binding of the actin filament capping proteins Gelsolin and CapG^24 and the motor protein, myosin II^25. […]

F-actin = molecular target: T2, F-actin (Oryctolagus cuniculus, UniProt P68135); experiment: Prodan-F-actin depolymerization kinetics after dilution; type: biochemical; conditions: Prodan actin emission ratio 465/502 nm, dilution below the critical concentration
T2 construct: Rabbit muscle G-actin is purified according to Marriott (1994); from tissue; host or cells: rabbit muscle

[4] = G-actin conjugate, emission monitored at 650 nm

| Molecule | MC emission maximum of G-actin conjugate (G-actin [1]) [nm] | MC absorption spectrum centre on BSA (BSA) [nm] | effect on cell division / cytokinesis [2] | MC absorption maximum on G-actin (G-actin [3]) [nm] | effect on rate of F-actin depolymerization (F-actin) | further results |
| --- | --- | --- | --- | --- | --- | --- |
| 8-(Iodomethyl)spirobenzopyran [compound 3] | 624 |  |  |  |  |  |
| CC1(C)c2ccccc2N(CCN2C(=O)C=CC2=O)C12C=Cc1cc([N+](=O)[O-])ccc1O2 (stereo not shown) [compound 6, 1′-(Maleimidoethyl)spirobenzopyran] | 628 | 544.5 |  |  |  |  |
| wild type cofilin: wild type cofilin, inactivated by phosphorylation at Ser-3 |  |  | no effect on cell division |  |  |  |
| 4′-(Bromomethyl)spirobenzopyran [compound 9] |  | 520 |  | 500 |  |  |
| 6′-(Maleimidomethyl)spirobenzopyran [compound 12] | 622 |  |  | 551.5 |  | S0-S1 excitation band of MC, centre (G-actin [1]; [4]): 558 nm; S0-S2 excitation band of MC, centre (G-actin [1]; [4]): 370 nm |
| 6′-(Bromomethyl)spirobenzopyran [compound 13] | 630 | 503.5 |  | 551.5 |  |  |
| Constitutively active cofilin: constitutively active S3A cofilin (protein, UniProt P23528 2-166, looked up, variant S3A) Cofilin-1: AAGVAVSDGVIKVFNDMKVRKSSTPEEVKKRKKAVLFCLSEDKKNIILEEGKEILVGDVGQTVDDPYATFVKMLPDKDCRYALYDATYETKESKKEDLVFIFWAPESAPLKSKMIYASSKDAIKKKLTGIKHELQANCYEEVKDRCTLAEKLGGSAVISLEGKPL |  |  | inhibited cytokinesis |  | increases the rate of F-actin depolymerization |  |
| Uncaged cofilin: caged cofilin after light-directed uncaging (protein, UniProt P23528 2-166, looked up, variant S3A, uncaged after photolysis, caged cofilin after light-directed uncaging) Cofilin-1: AAGVAVSDGVIKVFNDMKVRKSSTPEEVKKRKKAVLFCLSEDKKNIILEEGKEILVGDVGQTVDDPYATFVKMLPDKDCRYALYDATYETKESKKEDLVFIFWAPESAPLKSKMIYASSKDAIKKKLTGIKHELQANCYEEVKDRCTLAEKLGGSAVISLEGKPL |  |  |  |  | restores a substantial fraction of the cofilin activity |  |
| caged cofilin: constitutively active S3A cofilin caged with 3-5 NVOC groups by the NVOC-Cl approach (protein, UniProt P23528 2-166, looked up, variant S3A, caged with 3-5 NVOC groups) Cofilin-1: AAGVAVSDGVIKVFNDMKVRKSSTPEEVKKRKKAVLFCLSEDKKNIILEEGKEILVGDVGQTVDDPYATFVKMLPDKDCRYALYDATYETKESKKEDLVFIFWAPESAPLKSKMIYASSKDAIKKKLTGIKHELQANCYEEVKDRCTLAEKLGGSAVISLEGKPL |  |  | failed to undergo further divisions |  | did not accelerate the rate of F-actin depolymerization | effect on cell division / cytokinesis ([2]; listed as caged constitutively active cofilin): inhibits cytokinesis |
